As a reminder, the pIC50 is the negative decadic logarithm of the IC50, by convention in mol/L.

pIC50: −log10 of the molar value. Some results are limits rather than exact numbers.

In the first experiment the target is T1, recombinant alpha-glucosidase II (murine full-length glucosidase II, alpha and beta subunits, Glu 2) (Mus musculus, UniProt Q8BHN3).
T1 construct: made in house; host or cells: HEK-293T cells transduced with BacMam viruses (75% alpha, 25% beta); protein harvested from culture supernatant
T1 sequence (O08795 15-521): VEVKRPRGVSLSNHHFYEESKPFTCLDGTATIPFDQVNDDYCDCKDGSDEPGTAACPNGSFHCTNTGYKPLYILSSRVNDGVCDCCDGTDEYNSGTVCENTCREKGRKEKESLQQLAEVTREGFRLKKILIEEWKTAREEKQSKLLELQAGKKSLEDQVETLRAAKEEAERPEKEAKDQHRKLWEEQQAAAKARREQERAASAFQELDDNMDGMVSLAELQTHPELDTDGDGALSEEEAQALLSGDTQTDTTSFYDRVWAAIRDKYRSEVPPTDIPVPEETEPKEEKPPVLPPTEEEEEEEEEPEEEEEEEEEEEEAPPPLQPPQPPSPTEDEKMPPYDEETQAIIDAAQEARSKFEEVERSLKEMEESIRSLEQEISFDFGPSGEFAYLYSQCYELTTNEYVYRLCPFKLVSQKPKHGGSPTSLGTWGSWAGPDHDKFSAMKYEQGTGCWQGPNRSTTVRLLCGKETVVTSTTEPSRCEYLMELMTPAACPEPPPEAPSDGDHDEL
T1 sequence (Q8BHN3 33-944): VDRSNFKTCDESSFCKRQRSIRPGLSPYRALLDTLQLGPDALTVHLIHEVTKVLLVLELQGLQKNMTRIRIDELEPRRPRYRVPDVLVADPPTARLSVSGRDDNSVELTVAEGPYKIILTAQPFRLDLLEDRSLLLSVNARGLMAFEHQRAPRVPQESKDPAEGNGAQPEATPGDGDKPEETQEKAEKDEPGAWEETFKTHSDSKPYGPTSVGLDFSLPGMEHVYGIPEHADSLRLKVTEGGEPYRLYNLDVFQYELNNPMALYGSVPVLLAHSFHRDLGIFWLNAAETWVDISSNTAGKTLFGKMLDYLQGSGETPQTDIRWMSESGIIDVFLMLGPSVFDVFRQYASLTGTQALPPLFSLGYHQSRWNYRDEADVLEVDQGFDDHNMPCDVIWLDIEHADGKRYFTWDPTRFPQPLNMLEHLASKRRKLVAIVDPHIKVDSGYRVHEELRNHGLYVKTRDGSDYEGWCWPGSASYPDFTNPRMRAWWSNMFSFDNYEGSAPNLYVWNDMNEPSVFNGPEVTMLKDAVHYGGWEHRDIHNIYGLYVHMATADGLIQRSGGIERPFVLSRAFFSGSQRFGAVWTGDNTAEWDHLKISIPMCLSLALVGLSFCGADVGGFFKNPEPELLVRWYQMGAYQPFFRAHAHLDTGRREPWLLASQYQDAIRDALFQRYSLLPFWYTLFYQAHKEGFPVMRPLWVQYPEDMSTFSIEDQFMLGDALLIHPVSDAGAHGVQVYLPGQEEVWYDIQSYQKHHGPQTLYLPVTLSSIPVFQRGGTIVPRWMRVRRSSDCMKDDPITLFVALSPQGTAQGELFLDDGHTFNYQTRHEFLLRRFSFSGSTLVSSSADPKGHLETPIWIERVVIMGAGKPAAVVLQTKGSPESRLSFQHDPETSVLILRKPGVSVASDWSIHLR
Nature of the experiment: Alpha-glucosidase II assay (4-methylumbelliferyl-alpha-D-pyranoside substrate, fluorescence).
Settings: not given
Type of experiment: biochemical.
Regarding `O=[N+]([O-])c1cc(-c2ccccc2)ccc1NCCCCCCN1C[C@H](O)[C@@H](O)[C@H](O)[C@H]1CO` [Compound 1138, (2R,3R,4R,5S)-2-(hydroxymethyl)-1-[6-({3-nitro-[1,1′-biphenyl]-4-yl}amino)hexyl]piperidine-3,4,5-triol], the pIC50 was 8.70.
Still for that read-out and setting: with `O=[N+]([O-])c1cc(N2C3CCC2COC3)ccc1NCc1ccc(CN2CC(O)C(O)C(O)C2CO)cc1` (stereo in doubt) [Compound 1018, (2S,3S,4S,5R)-2-(hydroxymethyl)-1-({4-[({2-nitro-4-[(1R,5S)-3-oxa-8-azabicyclo[3.2.1]octan-8-yl]phenyl}amino)methyl]phenyl}methyl) piperidine-3,4,5-triol] the figure was greater than 9.00.

Staying with this experiment, now noted: Glucosidase 2; read-out: Glu2 IC50.
As to `COCCc1ccc(CCCCCN2C[C@H](O)[C@@H](O)[C@H](O)[C@H]2CO)cc1` [Compound 1307, (2R,3R,4R,5S)-2-(hydroxymethyl)-1-{5-[4-(2-methoxyethyl)phenyl]pentyl}piperidine-3,4,5-triol], the negative-log IC50 (pIC50) is 7.11.
On the same count and under the same terms, the figure for `COc1cc(NCCc2ccc(CCN3C[C@H](O)[C@@H](O)[C@H](O)[C@H]3CO)cc2)cc(-c2ncccn2)c1` [Compound 1156, (2R,3R,4R,5S)-2-(hydroxymethyl)-1-{2-[4-(2-{[3-methoxy-5-(pyrimidin-2-yl)phenyl]amino}ethyl)phenyl]ethyl}piperidine-3,4,5-triol] is 6.93.
Still for that read-out and setting: with `OC[C@@H]1[C@@H](O)[C@H](O)[C@@H](O)CN1Cc1ccc(CNc2ccc(N3CCOCC3)cc2)cc1` [Compound 1068] the figure was 5.80.
The same measure, in the same setting: with `[N-]=[N+]=Nc1ccc(NCCn2cc(CCN3C[C@H](O)[C@@H](O)[C@H](O)[C@H]3CO)c3ccccc32)c([N+](=O)[O-])c1` [Compound 1177, (2R,3R,4R,5S)-1-[2-(1-{2-[(4-azido-2-nitrophenyl)amino]ethyl}-1H-indol-3-yl)ethyl]-2-(hydroxymethyl)piperidine-3,4,5-triol] the figure was 7.19; with `[N-]=[N+]=Nc1ccc(NCCc2cncc(CCN3C[C@H](O)[C@@H](O)[C@H](O)[C@H]3CO)n2)c([N+](=O)[O-])c1` [Compound 1187, (2R,3R,4R,5S)-1-[2-(6-{2-[(4-azido-2-nitrophenyl)amino]ethyl}pyrazin-2-yl)ethyl]-2-(hydroxymethyl)piperidine-3,4,5-triol], 8.52.
On to `O=[N+]([O-])c1cc(C2CC2)ccc1NCCCCCCN1C[C@H](O)[C@@H](O)[C@H](O)[C@H]1CO` [Compound 1136, (2R,3R,4R,5S)-1-{6-[(4-cyclopropyl-2-nitrophenyl)amino]hexyl}-2-(hydroxymethyl)piperidine-3,4,5-triol], for which the negative logarithm of the IC50 (pIC50) is 9.00.
On the same count and under the same terms, the figure for `[N-]=[N+]=Nc1ccc(NCCc2cc(CCN3C[C@H](O)[C@@H](O)[C@H](O)[C@H]3CO)cs2)c([N+](=O)[O-])c1` [Compound 1179, (2R,3R,4R,5S)-1-[2-(5-{2-[(4-azido-2-nitrophenyl)amino]ethyl}thiophen-3-yl)ethyl]-2-(hydroxymethyl)piperidine-3,4,5-triol] is greater than 9.00.
On the same count and under the same terms, with `COc1cc(NCCc2ccc(CCN3C[C@H](O)[C@@H](O)[C@H](O)[C@H]3CO)cc2)cc(-c2cccnn2)c1` [Compound 1157, (2R,3R,4R,5S)-2-(hydroxymethyl)-1-{2-[4-(2-{[3-methoxy-5-(pyridazin-3-yl)phenyl]amino}ethyl)phenyl]ethyl}piperidine-3,4,5-triol] the figure was 8.40; with `O=Cc1cc(-c2ncccn2)ccc1NCCCCCCN1C[C@H](O)[C@@H](O)[C@H](O)[C@H]1CO` [Compound 1184, 5-(pyrimidin-2-yl)-2-({6-[(2R,3R,4R,5S)-3,4,5-trihydroxy-2-(hydroxymethyl)piperidin-1-yl]hexyl}amino)benzaldehyde], 9.00; with `CCCc1nc(-c2cc(Cl)cc(NCCc3ccc(CCN4C[C@H](O)[C@@H](O)[C@H](O)[C@H]4CO)cc3)c2)no1` [Compound 1123, (2R,3R,4R,5S)-1-{2-[4-(2-{[3-chloro-5-(5-propyl-1,2,4-oxadiazol-3-yl)phenyl]amino}ethyl)phenyl]ethyl}-2-(hydroxymethyl)piperidine-3,4,5-triol], 6.48.
Turning to `CS(=O)(=O)c1cc(NCc2ccc(CN3C[C@H](O)[C@@H](O)[C@H](O)[C@H]3CO)cc2)cc(-c2cccnn2)c1` [Compound 1058, (2R,3R,4R,5S)-2-(hydroxymethyl)-1-{[4-({[3-methanesulfonyl-5-(pyridazin-3-yl)phenyl]amino}methyl)phenyl]methyl}piperidine-3,4,5-triol], the pIC50 was 6.94.
As for `[N-]=[N+]=Nc1ccc(NCCc2ccc(CCN3C[C@@H](O)[C@H](O)[C@@H](O)[C@@H]3CO)c3ccccc23)c([N+](=O)[O-])c1` (stereo in doubt) [Compound 1178, (2S,3S,4S,5R)-1-[2-(4-{2-[(4-azido-2-nitrophenyl)amino]ethyl}naphthalen-1-yl)ethyl]-2-(hydroxymethyl)piperidine-3,4,5-triol], the pIC50 was 5.03.
The same measure, in the same setting: with `OC[C@@H]1[C@@H](O)[C@H](O)[C@@H](O)CN1CCc1ccc(CCNc2cc(Cl)cc(-c3cccnn3)c2)cc1` [Compound 1163, (2R,3R,4R,5S)-1-{2-[4-(2-{[3-chloro-5-(pyridazin-3-yl)phenyl]amino}ethyl)phenyl]ethyl}-2-(hydroxymethyl)piperidine-3,4,5-triol] the figure was greater than 9.00.
For the compound `[N-]=[N+]=Nc1ccc(NCc2ccc(CN3C[C@H](O)[C@@H](O)[C@H](O)[C@H]3CO)cc2)c([N+](=O)[O-])c1` [Compound 1170, (2R,3R,4R,5S)-1-[(4-{[(4-azido-2-nitrophenyl)amino]methyl}phenyl)methyl]-2-(hydroxymethyl)piperidine-3,4,5-triol], the pIC50 was greater than 9.00.
The same measure, in the same setting: the figure for `COc1cc(NCCCCCCN2C[C@H](O)[C@@H](O)[C@H](O)[C@H]2CO)cc(-c2ccccc2)c1` [Compound 1150, (2R,3R,4R,5S)-2-(hydroxymethyl)-1-[6-({5-methoxy-[1,1′-biphenyl]-3-yl}amino)hexyl]piperidine-3,4,5-triol] is greater than 9.00.
Still for that read-out and setting: with `[N-]=[N+]=Nc1ccc(NCCc2ccc(CCN3C[C@H](O)[C@@H](O)[C@H](O)[C@H]3CO)cc2)c([N+](=O)[O-])c1` [Compound 1200, (2R,3R,4R,5S)-1-[2-(4-{2-[(4-azido-2-nitrophenyl)amino]ethyl}phenyl)ethyl]-2-(hydroxymethyl)piperidine-3,4,5-triol] the figure was 8.22; with `N#Cc1cc(NCCCCCCN2C[C@H](O)[C@@H](O)[C@H](O)[C@H]2CO)cc(-c2ncccn2)c1` [Compound 1130, 3-(pyrimidin-2-yl)-5-({6-[(2R,3R,4R,5S)-3,4,5-trihydroxy-2-(hydroxymethyl)piperidin-1-yl]hexyl}amino)benzonitrile], 8.22; with `OC[C@@H]1[C@@H](O)[C@H](O)[C@@H](O)CN1CCCCCCNc1ccc(-c2ncco2)cc1Cl` [Compound 1203, (2R,3R,4R,5S)-1-(6-{[2-chloro-4-(1,3-oxazol-2-yl)phenyl]amino}hexyl)-2-(hydroxymethyl)piperidine-3,4,5-triol], greater than 9.00.
On the same count and under the same terms, with `CC(=O)Nc1cc(NCCCCCCN2C[C@H](O)[C@@H](O)[C@H](O)[C@H]2CO)cc(-c2ncccn2)c1` [Compound 1125, N-[3-(pyrimidin-2-yl)-5-({6-[(2R,3R,4R,5S)-3,4,5-trihydroxy-2-(hydroxymethyl)piperidin-1-yl]hexyl}amino)phenyl]acetamide] the figure was 7.72.

These data come from patent US20250197372A1 (priority 2020, published 2025).
